Results as given in BigSolDB 2.1.

NC(=O)OCCCc1ccccc1
solubility (mole fraction)
Details	283.15 K	288.15 K	293.15 K	298.15 K	303.15 K	308.15 K	313.15 K	318.15 K	323.15 K
in 2-butanone	0.0601	0.0718	0.0829	0.0993	0.117	0.131	0.147	0.164	0.187
in acetone	0.0652	0.0775	0.0939	0.107	0.12	0.137	0.158	0.179	0.202
in ethanol	0.0156	0.0178	0.0239	0.0307	0.0392	0.0493	0.0623	0.0808	0.1
in ethyl acetate	0.0493	0.0567	0.0687	0.0803	0.0929	0.104	0.117	0.13	0.144
in isopropanol	0.0108	0.0149	0.0207	0.0261	0.0339	0.0439	0.0587	0.0769	0.0904
in methanol	0.0202	0.0247	0.0321	0.0396	0.0492	0.0614	0.0752	0.1	0.118
in methyl acetate	0.0494	0.059	0.0719	0.0862	0.101	0.119	0.139	0.161	0.186
in n-butanol	0.00704	0.012	0.0198	0.0279	0.0391	0.0492	0.0663	0.0824	0.0972
in n-pentanol	0.0174	0.02	0.0239	0.031	0.0404	0.0523	0.0668	0.081	0.0946
in n-propanol	0.0127	0.0155	0.0219	0.028	0.0349	0.045	0.0589	0.0771	0.0989
in sec-butanol	0.0138	0.017	0.0226	0.0299	0.0405	0.0515	0.0679	0.092	0.118
in water	8.1e-06	1.5e-05	3.19e-05	5.99e-05	0.000107	0.000165	0.000229	0.000293	0.000378
